Test results taken from US6992079B2, “Substituted 11-phenyl-dibenzazepine compounds useful for the treatment or prevention of diseases characterized by abnormal cell proliferation” (President Fellows of Harvard College, priority 1997, dated 2006).
pIC50: −log10 of the molar value. Where two headings read alike, the source gives them in different places. Each block holds one molecule with its values, some of them ahead of it.

Tests used:
[1] = system: NIH 3T3 mouse fibroblast cells; assay: Mitogenic assay (mitogen-induced cell proliferation); type: cell-based; settings: NIH3T3, 10 μM compound
HT29 = assay: SRB antiproliferative assay; type: cell-based; settings: Homo sapiens
Source text: (§1) The cells were passaged using Trypsin (Gibco).

HTB174 = assay: SRB antiproliferative assay; type: cell-based; settings: Homo sapiens, HTB174 (Lung), 5% FCS/5 day incubation
Source text: as §1

MCF7 = assay: SRB antiproliferative assay; type: cell-based; settings: Homo sapiens
Source text: as §1

HEPG2 = assay: SRB antiproliferative assay; type: cell-based; settings: Homo sapiens, HepG2, HEPG2 (Hepatocel), 5% FCS/5 day incubation
Source text: as §1

MMRU = assay: SRB antiproliferative assay; type: cell-based; settings: Homo sapiens
Source text: as §1

A549 = assay: SRB antiproliferative assay; type: cell-based; settings: Homo sapiens
Source text: as §1

[2] = system: squamous cell carcinoma (KLN-205) cells; assay: Tumor growth in murine squamous cell carcinoma model; type: in vivo, mouse
[3] = system: Ca^2+ from intracellular pools / capacitative Ca^2+ influx; assay: Intracellular Ca2+ release and capacitative Ca2+ influx; type: cell-based; settings: in vitro
[4] = Preliminary toxicology, subcutaneous injection for 14 days; type: in vivo, CD-1 female mice; settings: mouse, in vivo, sc, 80 mg/kg/day
Protocol: The toxicological effects of CLT, and compounds 28, 30 and 31 were tested in CD-1 female mice. A dose of 80 mg/kg/day was given to each mouse via subcutaneous injection for a period of 14 days. Preliminary toxicological data was determined by measuring body weight, gross pathology of organs blood chemistry and histology. The vehicle used was DMF 12%+2% Tween 20 88%.

[5] = system: human melanoma MM-RU cells; assay: Lung metastases in MM-RU tumor-bearing mice; type: in vivo, nude mice
[6] = target: T1, Gardos channel of erythrocytes (Homo sapiens, UniProt O15554); assay: Gardos channel assay; type: cell-based
T1 construct: endogenous in cells; host or cells: erythrocytes
T1 sequence (O15554 whole entry): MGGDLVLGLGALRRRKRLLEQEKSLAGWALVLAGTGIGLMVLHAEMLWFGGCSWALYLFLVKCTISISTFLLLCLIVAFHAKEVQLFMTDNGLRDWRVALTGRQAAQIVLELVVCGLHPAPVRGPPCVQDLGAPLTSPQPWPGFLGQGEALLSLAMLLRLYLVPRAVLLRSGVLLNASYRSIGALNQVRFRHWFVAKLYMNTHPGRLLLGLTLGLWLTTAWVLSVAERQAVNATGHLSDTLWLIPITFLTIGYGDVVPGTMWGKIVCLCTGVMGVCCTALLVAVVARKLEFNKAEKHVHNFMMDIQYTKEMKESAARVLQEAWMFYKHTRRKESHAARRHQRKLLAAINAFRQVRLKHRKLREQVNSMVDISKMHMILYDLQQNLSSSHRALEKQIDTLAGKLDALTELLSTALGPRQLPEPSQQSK

MDA-MB-23 = assay: SRB antiproliferative assay; type: cell-based; settings: Homo sapiens
Source text: as §1

U118MG = assay: SRB antiproliferative assay; type: cell-based; settings: Homo sapiens, U-118-MG, U118MG (CNS), 5% FCS/5 day incubation
Source text: as §1

HeLa = assay: SRB antiproliferative assay; type: cell-based; settings: Homo sapiens, HeLa (Cervical), 5% FCS/5 day incubation
Source text: as §1

GM = assay: SRB antiproliferative assay; type: cell-based; settings: GM (Normal human), 5% FCS/5 day incubation
Source text: as §1

CaSki = assay: SRB antiproliferative assay; type: cell-based; settings: Homo sapiens, Ca-Ski, CaSki (Cervical), 5% FCS/5 day incubation
Source text: as §1

SK-MEL-28 = assay: SRB antiproliferative assay; type: cell-based; settings: Homo sapiens, SK-MEL-28 (Melanoma), 5% FCS/5 day incubation
Source text: as §1

L929 = assay: SRB antiproliferative assay; type: cell-based; settings: L929 (Normal mouse), 5% FCS/5 day incubation
Source text: as §1

HUVEC = assay: SRB antiproliferative assay; type: cell-based; settings: HUVEC (Normal human), 5% FCS/5 day incubation
Source text: as §1

ACHN = assay: SRB antiproliferative assay; type: cell-based; settings: Homo sapiens, ACHN (Renal), 5% FCS/5 day incubation
Source text: as §1

DU-145 = assay: SRB antiproliferative assay; type: cell-based; settings: Homo sapiens, DU-145 (Prostate), 5% FCS/5 day incubation
Source text: as §1

HCT-15 = assay: SRB antiproliferative assay; type: cell-based; settings: Homo sapiens, HCT-15 (Colon), 5% FCS/5 day incubation
Source text: as §1

[7] = HT-29, HT29 (Colon), 5% FCS/5 day incubation
[8] = MCF7, MCF7 (Breast), 5% FCS/5 day incubation
[9] = MMRU (Melanoma), 5% FCS/5 day incubation
[10] = A549, A549 (Lung), 5% FCS/5 day incubation
[11] = mouse, in vivo, po, 120 mg/kg/day
[12] = MDA-MB-23 (Breast), SRB, 5% FCS/5 day incubation, read-out: IC50

pIC50 (HT29; [7]): 5.32
pIC50 (MCF7; [8]): 5.62
pIC50 (HEPG2): 5.35
pIC50 (A549; [10]): < 5.30
SMILES: O=C(Nc1ccc([N+](=O)[O-])cc1)N1Cc2ccccc2C(c2ccccc2Cl)c2ccccc21 (stereo not drawn) [Compound 35]
inhibition at 10 µM ([1]; Mus musculus): 0%
pIC50 (HTB174): 5.40
pIC50 (MMRU; [9]): 5.51

melting point: 95 to 99 °C
SMILES: O=C(Oc1ccccc1)N1Cc2ccccc2C(c2ccccc2Cl)c2ccccc21 (stereo not drawn) [Compound 26, N-phenoxycarbonyl-11-(2′-chlorophenyl)-5,6-dihydro-11H-dibenz[b,e]azepine]
inhibition at 10 µM ([1]; Mus musculus): 99%

SMILES: Clc1ccccc1C(c1ccccc1)(c1ccccc1)n1ccnc1 [Clotrimazole, reference compound]
inhibition at 10 µM [1]: 93%
cyclin D1 and PCNA expression in vivo ([2]; KLN induced tumors): abrogated cyclin D1 and PCNA expression
tumor growth ([2]; KLN-205, subcutaneous injection or oral administration of 80 mg/kg/day for 30 days): significantly inhibited tumor growth
Ca^2+ release from intracellular pools [3]: releases Ca^2+ from intracellular pools
capacitative Ca^2+ influx into the cell [3]: inhibits capacitative Ca^2+ influx
overall body weight vs age matched control animals [4]: no significant gains or losses
Lung Metastases ([5]; MM-RU tumor-bearing mice, 120 mg/kg/d × 21, p.o.): 64 ± 20
Body Wt. Change [5, 11]: 86%
Liver Wt. [5, 11]: 1.19 ± 0.10 gram

SMILES: COc1ccc(C(=O)N2Cc3ccccc3C(c3ccccc3)c3ccccc32)cc1 (stereo not drawn) [Compound 21]
inhibition at 10 µM ([1]; Mus musculus): 93%
pIC50 (HTB174): 5.72

SMILES: COc1cccc(C(=O)N2Cc3ccccc3C(c3ccccc3)c3ccccc32)c1 (stereo not drawn) [Compound 17]
inhibition at 10 µM ([1]; Mus musculus): 99%

SMILES: COc1cccc2c1C(c1ccccc1Cl)c1cc(Cl)ccc1N(C(=O)c1ccc(Cl)cc1)C2 (stereo not drawn) [Compound 24]
inhibition at 10 µM ([1]; Mus musculus): 89%

SMILES: Clc1ccccc1C1c2ccccc2CN(Cc2ccccc2)c2ccccc21 (stereo not drawn) [Compound 8]
inhibition at 10 µM ([1]; Mus musculus): 84%

pIC50 [6]: 6.36 to 6.38
SMILES: CN1Cc2ccccc2C(c2ccccc2Cl)c2ccccc21 (stereo not drawn) [Compound 29]

pIC50 (HT29; HT-29, HT29, 5% FCS/2 days): < 5.00
pIC50 (A549; A549, A549, 5% FCS/2 days): < 5.00
SMILES: COC(=O)N1Cc2ccccc2C(c2ccccc2)c2ccccc21 (stereo not drawn) [Compound 6]
inhibition at 10 µM ([1]; Mus musculus): 87%

SMILES: CN1Cc2ccccc2C(c2ccccc2)c2cc(Br)ccc21 (stereo not drawn) [Compound 7]
inhibition at 10 µM ([1]; Mus musculus): 99%

SMILES: O=C(O)C(=O)N1Cc2ccccc2C(c2ccccc2)c2ccccc21 (stereo not drawn) [Compound 11]
inhibition at 10 µM ([1]; Mus musculus): 32%

SMILES: c1ccc(C2c3ccccc3CNc3ccccc32)cc1 (stereo not drawn) [Compound 1]
inhibition at 10 µM ([1]; Mus musculus): 56%

SMILES: c1ccc(CN2Cc3ccccc3C(c3ccccc3)c3ccccc32)cc1 (stereo not drawn) [Compound 5]
inhibition at 10 µM ([1]; Mus musculus): 91%

SMILES: COc1ccc2c(c1)CNc1ccc(Cl)cc1C2c1ccccc1Cl (stereo not drawn) [Compound 19]
inhibition at 10 µM ([1]; Mus musculus): 99%

melting point: 159 to 161 °C
SMILES: COC(=O)N1Cc2ccccc2C(c2ccccc2Cl)c2ccccc21 (stereo not drawn) [Compound 9, N-methoxycarbonyl-11-(2′-chlorophenyl)-5,6-dihydro-11H-dibenz[b,e]azepine]
inhibition at 10 µM ([1]; Mus musculus): 99%

SMILES: COc1ccc2c(c1)CNc1ccccc1C2(c1ccccc1)c1ccc(F)cc1 (stereo not drawn) [Compound 12]
inhibition at 10 µM ([1]; Mus musculus): 13%

SMILES: Clc1ccc2c(c1)C(c1ccccc1)c1cc3ccccc3cc1CN2 (stereo not drawn) [Compound 15]
inhibition at 10 µM ([1]; Mus musculus): 40%

SMILES: O=C(c1ccc2ccccc2c1)N1Cc2ccccc2C(c2ccccc2)c2ccccc21 (stereo not drawn) [Compound 25]
inhibition at 10 µM ([1]; Mus musculus): 75%

pIC50 (HT29; [7]): 6.40
pIC50 (MDA-MB-23; [12]): < 6.00
pIC50 (MCF7; [8]): 6.30
pIC50 (HEPG2): 6.40
pIC50 (A549; [10]): 5.96
pIC50 (HeLa): 6.70
SMILES: COc1ccc(C(=O)N2Cc3ccccc3C(c3ccccc3Cl)c3ccccc32)cc1 (stereo not drawn) [Compound 27]
inhibition at 10 µM ([1]; Mus musculus): 99%
pIC50 (HTB174): 6.52
pIC50 (U118MG): 6.40

pIC50 (HT29; [7]): 5.59
pIC50 (MCF7; [8]): 5.38
pIC50 (HEPG2): 5.47
pIC50 (A549; [10]): < 5.30
SMILES: O=C(c1ccccc1)N1Cc2ccccc2C(c2ccccc2)c2ccccc21 (stereo not drawn) [Compound 16]
inhibition at 10 µM ([1]; Mus musculus): 99%
pIC50 (MMRU; [9]): 5.57

melting point: 155 to 165 °C
SMILES: O=C(Oc1ccccc1)N1Cc2ccccc2C(c2ccccc2)c2ccccc21 (stereo not drawn) [Compound 14, N-phenoxycarbonyl-11-phenyl-5,6-dihydro-11H-dibenz[b,e]azepine]
inhibition at 10 µM ([1]; Mus musculus): 98%

SMILES: O=C(c1ccc(Cl)cc1)N1Cc2ccccc2C(c2ccccc2)c2ccccc21 (stereo not drawn) [Compound 13]
inhibition at 10 µM ([1]; Mus musculus): 97%

pIC50 (HT29; [7]): 6.15
pIC50 (MDA-MB-23; [12]): < 6.00
pIC50 (HEPG2): 6.05
pIC50 (HeLa): 6.22
SMILES: O=C(c1ccc([N+](=O)[O-])cc1)N1Cc2ccccc2C(c2ccccc2)c2ccccc21 (stereo not drawn) [Compound 20]
inhibition at 10 µM ([1]; Mus musculus): 95%
pIC50 (HTB174): 6.15
pIC50 (U118MG): 6.05

SMILES: COc1cccc2c1C(c1ccccc1Cl)c1cc(Cl)ccc1NC2 (stereo not drawn) [Compound 18]
inhibition at 10 µM ([1]; Mus musculus): 99%

SMILES: COc1cc([C@@H]2c3cc4c(cc3[C@@H](O[C@@H]3O[C@@H]5CO[C@@H](C)O[C@H]5[C@H](O)[C@H]3O)[C@H]3COC(=O)[C@H]23)OCO4)cc(OC)c1O [VP-16, Etoposide, reference compound]
pIC50 (GM): 5.85
pIC50 (HT29; [7]): > 5.90
pIC50 (HT29; HT-29, HT29, 2% FCS/3 days): 4.70
pIC50 (CaSki): 5.74
pIC50 (HTB174): > 5.90
pIC50 (SK-MEL-28): > 5.90
pIC50 (MDA-MB-23; MDA-MB-23): > 5.90
pIC50 (MCF7; [8]): > 5.90
pIC50 (MCF7; MCF7, MCF7, 2% FCS/3 days): > 5.60
pIC50 (HEPG2): > 5.90
pIC50 (L929): > 5.90
pIC50 (MMRU; [9]): > 5.90
pIC50 (MMRU; MMRU, 2% FCS/3 days): > 5.60
pIC50 (HUVEC): > 5.90
pIC50 (A549; [10]): > 5.90
pIC50 (A549; A549, A549, 2% FCS/3 days): 5.64
pIC50 (U118MG): 5.66
pIC50 (ACHN): > 5.90
pIC50 (DU-145): > 5.90
pIC50 (HeLa): > 5.90
pIC50 (HCT-15): 5.89

SMILES: COc1ccc2c(c1)CN(C(=O)c1ccc(Cl)cc1)c1ccc(Cl)cc1C2c1ccccc1Cl (stereo not drawn) [Compound 23]
inhibition at 10 µM ([1]; Mus musculus): 55%

SMILES: Clc1ccccc1C1c2ccccc2CNc2ccccc21 (stereo not drawn) [Compound 3]
inhibition at 10 µM ([1]; Mus musculus): 99%

SMILES: O=C(Nc1ccccc1)N1Cc2ccccc2C(c2ccccc2Cl)c2ccccc21 (stereo not drawn) [Compound 32]
inhibition at 10 µM ([1]; Mus musculus): 99%

SMILES: CCOC(=O)C(=O)N1Cc2ccccc2C(c2ccccc2)c2ccccc21 (stereo not drawn) [Compound 10]
inhibition at 10 µM ([1]; Mus musculus): 53%

SMILES: CNc1ccc(C(=O)N2Cc3ccccc3C(c3ccccc3Cl)c3ccccc32)cc1 (stereo not drawn) [Compound 33]
inhibition at 10 µM ([1]; Mus musculus): 99%
pIC50 (HTB174): 5.85

SMILES: CN1Cc2ccccc2C(c2ccccc2)c2ccccc21 (stereo not drawn) [Compound 2]
inhibition at 10 µM ([1]; Mus musculus): 99%

pIC50 (HT29; HT-29, HT29, 2% FCS/3 days): 5.01
pIC50 (MCF7; MCF7, MCF7, 2% FCS/3 days): 5.77
pIC50 (A549; A549, A549, 2% FCS/3 days): 4.94
SMILES: CN1Cc2ccccc2C(c2ccccc2Cl)c2ccccc21 (stereo not drawn) [Compound 4]
inhibition at 10 µM ([1]; Mus musculus): 89%
pIC50 (MMRU; MMRU, 2% FCS/3 days): 5.34

SMILES: Cc1ccc(C(=O)N2Cc3ccccc3C(c3ccccc3)c3ccccc32)cc1 (stereo not drawn) [Compound 22]
inhibition at 10 µM ([1]; Mus musculus): 99%
pIC50 (HTB174): 5.85

pIC50 (HEPG2): 5.82
SMILES: Nc1ccc(C(=O)N2Cc3ccccc3C(c3ccccc3Cl)c3ccccc32)cc1 (stereo not drawn) [Compound 34]
inhibition at 10 µM ([1]; Mus musculus): 99%
pIC50 (HTB174): 6.05
pIC50 (MMRU; [9]): 5.92
